Test [1] addresses T1, sGC α1/β1 heterodimer stably expressed in CHO-K1 cells (CHO-K1/sGC) (Homo sapiens, UniProt Q02108+Q02153).
T1 construct: expressed in transfected cells
T1 sequence (Q02108 1-690): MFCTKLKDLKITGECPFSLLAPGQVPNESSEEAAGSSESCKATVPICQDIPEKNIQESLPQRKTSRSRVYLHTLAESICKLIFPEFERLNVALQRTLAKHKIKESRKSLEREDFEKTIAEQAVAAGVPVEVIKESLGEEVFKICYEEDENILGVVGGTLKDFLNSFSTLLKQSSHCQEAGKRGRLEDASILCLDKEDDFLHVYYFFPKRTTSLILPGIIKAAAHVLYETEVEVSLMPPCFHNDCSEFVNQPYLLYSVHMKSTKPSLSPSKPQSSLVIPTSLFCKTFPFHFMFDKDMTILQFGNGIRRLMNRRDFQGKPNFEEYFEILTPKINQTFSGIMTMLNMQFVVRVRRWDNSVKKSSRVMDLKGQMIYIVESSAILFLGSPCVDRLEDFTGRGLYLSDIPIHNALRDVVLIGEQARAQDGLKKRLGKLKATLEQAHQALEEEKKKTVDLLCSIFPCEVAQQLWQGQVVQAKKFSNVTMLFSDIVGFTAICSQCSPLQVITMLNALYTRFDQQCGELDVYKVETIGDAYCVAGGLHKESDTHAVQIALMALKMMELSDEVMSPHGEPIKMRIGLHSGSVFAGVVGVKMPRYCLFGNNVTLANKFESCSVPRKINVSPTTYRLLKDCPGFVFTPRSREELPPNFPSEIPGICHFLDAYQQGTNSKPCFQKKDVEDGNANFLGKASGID
T1 sequence (Q02153 1-619): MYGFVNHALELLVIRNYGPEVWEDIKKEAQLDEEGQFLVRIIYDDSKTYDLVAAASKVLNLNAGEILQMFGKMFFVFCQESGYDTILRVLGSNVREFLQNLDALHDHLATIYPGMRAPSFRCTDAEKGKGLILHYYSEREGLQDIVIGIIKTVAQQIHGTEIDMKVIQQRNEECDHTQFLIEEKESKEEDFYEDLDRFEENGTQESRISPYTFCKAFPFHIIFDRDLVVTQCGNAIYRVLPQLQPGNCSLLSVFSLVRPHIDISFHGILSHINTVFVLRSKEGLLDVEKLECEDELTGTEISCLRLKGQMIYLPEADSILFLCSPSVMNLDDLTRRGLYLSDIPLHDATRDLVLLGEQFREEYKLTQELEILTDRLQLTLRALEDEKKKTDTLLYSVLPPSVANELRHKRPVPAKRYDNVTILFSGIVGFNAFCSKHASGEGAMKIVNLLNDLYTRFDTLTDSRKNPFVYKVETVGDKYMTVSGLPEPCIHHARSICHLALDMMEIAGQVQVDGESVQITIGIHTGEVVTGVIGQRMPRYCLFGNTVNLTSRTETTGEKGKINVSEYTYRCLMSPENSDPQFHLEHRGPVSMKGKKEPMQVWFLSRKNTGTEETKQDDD
As to the kind of experiment: Cell-based sGC functional assay (CASA assay), cGMP generation by HTRF. The following applies: for Emax: CHO-K1, maximum cGMP production of Compound A set to 100% activation, read-out: % Act. (percent activation relative to Compound A); for EC50: CHO-K1/sGC cells, 1 hr at 37° C., 4P fit, presence or absence of DETA-NO not given, read-out: IP (nM) (inflection point). In a few lines: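 CHO-K1/sGC cells (4×10^5/mL) in EBSS with 5 mM MgCl2, 10 mM HEPES, 0.05% BSA and 0.5 mM IBMX, treated 1 hr at 37° C with compounds (2.5% DMSO) with or without 1 μM DETA-NO. cGMP measured by HTRF, expressed as % of a reference heme-dependent activator's maximum; inflection point and fold induction from 4P fit.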
(TR-FRET usually uses a lanthanide donor and a delayed reading to cut background.)

In test [2] the test system is systolic blood pressure in spontaneously hypertensive rats. As to the kind of experiment: Acute efficacy in spontaneously hypertensive rats (SHR), telemetry blood pressure. Type of test: in vivo, rat. The text has this: Acute Efficacy in Spontaneously Hypertensive Rats (SHR)
Spontaneously hypertensive rats (SHR, male, Charles River) were implanted with DSI TA11 PA-C40 telemetry device (Data Sciences, Inc., St. Paul, Minn.) under isoflurane or ketamine/metomidine anesthesia. The telemetry unit catheter was inserted into the descending aorta via the femoral artery and the telemetry device was implanted subcutaneously in the left flank area. Animals were allowed to recover from surgery for 14 days before the start of any studies. Blood pressure, heart rate, and activity signals from conscious, freely moving rats were recorded continuously for 30 seconds every 10 minutes. On the day prior to administration of compound, a single oral dose of vehicle (10% transcutol/20% Cremophor/70% water) was administered to all animals to establish baseline control data. The blood pressure lowering efficacy of compound (PO) or vehicle was evaluated following a single oral gavage. Data were collected as hourly averages, and changes in blood pressure were calculated by subtracting control baseline data on an hourly basis. Animals were maintained on normal diet with a 12 hour light-dark cycle.
Maximum peak decreases of systolic blood pressure (SBP) in SHR at a particular P.O. dose (mpk milligrams per kilogram) for the following representative compounds are provided below in Table 6.
Category A=SBP in SHRs <20 mmHg; Category B=SBP in SHRs 20-40 mmHg;
Category C=SBP in SHRs >40 mmHg

As to `CCCOc1nc(-c2nc(N)c3c(n2)NC(=O)C3(C)c2ccc(F)cc2)cn2ccnc12` (stereo not drawn) [Example 39A, 4-Amino-5-(4-fluorophenyl)-5-methyl-2-(8-propoxyimidazo[1,2-a]pyrazin-6-yl)-5,7-dihydro-6H-pyrrolo[2,3-d]pyrimidin-6-one], in test [1], the Emax is 109% and the EC50 came out at 148 nM. Besides, the “Maximum peak decrease of systolic blood pressure (SBP), Category” value (from here on “Maximum peak decrease”) in test [2] (single oral dose 1.0 mpk P.O.) is “C (Category C=SBP in SHRs >40 mmHg)”.
As to `COCCNc1nc(-c2nc(N)c3c(n2)NC(=O)C3(C)c2ccc(Cl)cc2)cn2ccnc12` (stereo not drawn) [Example 40A, 4-Amino-5-(4-chlorophenyl)-2-{8-[(2-methoxyethyl)amino]imidazo[1,2-a]pyrazin-6-yl}-5-methyl-5,7-dihydro-6H-pyrrolo[2,3-d]pyrimidin-6-one], in test [1], the Emax is 117% and the EC50 turned out to be 85 nM. In test [2] (single oral dose 1.0 mpk P.O.), the “Maximum peak decrease” value is listed as “B (Category B=SBP in SHRs 20-40 mmHg)”.
For `CC1(c2ccc(Cl)cc2)C(=O)Nc2nc(-c3cn4ccnc4c(OCC(F)(F)C(F)(F)F)n3)nc(N)c21` (stereo not drawn) [Example 47A, 4-amino-5-(4-chlorophenyl)-5-methyl-2-[8-(2,2,3,3,3-pentafluoro-propoxy)imidazo [1,2-a]pyrazin-6-yl]-5,7-dihydro-6H-pyrrolo[2,3-d] pyrimidin-6-one] the same measures were 91%, 157 nM and “B (Category B=SBP in SHRs 20-40 mmHg)”.
For the compound `CCCOc1nc(-c2nc(N)c3c(n2)NC(=O)C3(C)c2ccc(Cl)cc2)cn2ccnc12` (stereo not drawn) [Example 49A, 4-amino-5-(4-chlorophenyl)-5-methyl-2-(8-propoxyimidazo [1,2-a]pyrazin-6-yl)-5,7-dihydro-6H-pyrrolo[2,3-d] pyrimidin-6-one], in test [1], the Emax was 117% and the EC50 was 30 nM. In addition, the “Maximum peak decrease” value in test [2] (single oral dose 0.3 mpk P.O.) is given as “B (Category B=SBP in SHRs 20-40 mmHg)”.
With `CC1(c2ccc(Cl)cc2)C(=O)Nc2nc(-c3cn4ccnc4c(OCCC4CC4)n3)nc(N)c21` (stereo not drawn) [Example 50A, 4-amino-5-(4-chlorophenyl)-2-[8-(2-cyclo-propylethoxy)imidazo[1,2-a]pyrazin-6-yl]-5-methyl-5,7-dihydro-6H-pyrrolo[2,3-d] pyrimidin-6-one], in test [1], the Emax worked out at 106% and the EC50 came to 12 nM. Also, in test [2] (single oral dose 0.3 mpk P.O.), the “Maximum peak decrease” value is on record as “B (Category B=SBP in SHRs 20-40 mmHg)”.
For `CC(C)COc1nc(-c2nc(N)c3c(n2)NC(=O)C3(C)c2ccc(F)cc2)cn2ccnc12` (stereo not drawn) [Example 51A, 4-amino-5-(4-fluorophenyl)-5-methyl-2-[8-(2-methyl-propoxy)imidazo [1,2-a]pyrazin-6-yl]-5,7-dihydro-6H-pyrrolo[2,3-d] pyrimidin-6-one] the same measures were 127%, 27 nM and “B (Category B=SBP in SHRs 20-40 mmHg)”.
As to `CC1(c2ccc(Cl)cc2)C(=O)Nc2nc(-c3cn4ccnc4c(NCC(F)(F)C(F)(F)F)n3)nc(N)c21` (stereo not drawn) [Example 61A, 4-amino-5-(4-chlorophenyl)-5-methyl-2-{8-[(2,2,3,3,3-pentafluoro-propyl)amino]imidazo[1,2-a]pyrazin-6-yl}-5,7-dihydro-6H-pyrrolo [2,3-d]pyrimidin-6-one], in test [1], the Emax was found to be 116% and the EC50 is 165 nM. Besides, the “Maximum peak decrease” value in test [2] (single oral dose 3.0 mpk P.O.) is given as “B (Category B=SBP in SHRs 20-40 mmHg)”.
Regarding `CCCSc1nc(-c2nc(N)c3c(n2)NC(=O)C3(C)c2ccc(F)cc2)cn2ccnc12` (stereo not drawn) [Example 62A, 4-amino-5-(4-fluorophenyl)-5-methyl-2-[8-(propylsulfanyl)imidazo[1,2-a]pyrazin-6-yl]-5,7-dihydro-6H-pyrrolo [2,3-d]pyrimidin-6-one], in test [1], the Emax was 99% and the EC50 is 142 nM. For the same compound, the “Maximum peak decrease” value in test [2] (single oral dose 1.0 mpk P.O.) was “B (Category B=SBP in SHRs 20-40 mmHg)”.

The record behind these values is patent US10245264B2, “Substituted imidazo[1,2-a]pyrazines as soluble guanylate cyclase activators” (Merck Sharp & Dohme Corp., priority 2015, dated 2019).
